In US5256782A, “Thienopyridine derivatives which are intermediates” (Takeda Chemical Industries, Ltd., priority 1990, dated 1993):

molecular target: T1, acyl-CoA: cholesterol acyltransferase (ACAT) (Rattus norvegicus, UniProt Q7TQM4); assay: ACAT inhibitory activity (labeled cholesterol ester formation from [1-14C]oleoyl-CoA and endogenous cholesterol; microsome fraction of rat tunica mucosa intestini tenuis); format: biochemical, Spregue-Dawley male rat; settings: 0.5 × 10^-6 M; read-out: ACAT inhibitory rate (labeled cholesterol ester formation inhibitory rate)
T1 construct: microsome fraction of the tunica mucosa intestini tenuis; from tissue; host or cells: microsome fraction of small-intestinal mucosa, Sprague-Dawley male rat (six weeks old, fasted 20 hours)
T1 sequence (Q7TQM4 1-524): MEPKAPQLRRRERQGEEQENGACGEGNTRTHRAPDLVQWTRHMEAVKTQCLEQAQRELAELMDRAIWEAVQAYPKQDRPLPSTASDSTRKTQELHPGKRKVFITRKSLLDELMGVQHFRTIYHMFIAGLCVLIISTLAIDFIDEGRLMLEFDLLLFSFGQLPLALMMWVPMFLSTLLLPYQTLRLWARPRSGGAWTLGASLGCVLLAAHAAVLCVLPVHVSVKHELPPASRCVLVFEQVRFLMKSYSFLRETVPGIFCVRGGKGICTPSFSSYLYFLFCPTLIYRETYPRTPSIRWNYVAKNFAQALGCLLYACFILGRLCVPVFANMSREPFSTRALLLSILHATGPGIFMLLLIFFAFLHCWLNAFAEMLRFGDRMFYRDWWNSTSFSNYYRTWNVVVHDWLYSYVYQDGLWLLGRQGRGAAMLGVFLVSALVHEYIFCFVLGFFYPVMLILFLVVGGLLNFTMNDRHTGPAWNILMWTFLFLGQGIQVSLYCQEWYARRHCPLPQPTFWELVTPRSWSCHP

inhibition at 0.5 µM [%]	SMILES
82.3	O=C(Nc1ccc(F)cc1F)Nc1cnc2sc3c(c2c1-c1ccccc1Cl)CCCC3 [Example 12, N-[4-(2-chlorophenyl)-5,6,7,8-tetrahydro[1]-benzothieno[2,3-b]pyridin-3-yl]-N'-(2,4-difluorophenyl)urea]

molecular target: T1, acyl-CoA: cholesterol acyltransferase (ACAT); assay: as above; format: biochemical, Spregue-Dawley male rat; settings: 10^-6 M; read-out: ACAT inhibitory rate (labeled cholesterol ester formation inhibitory rate)
Description: An enzyme specimen ACAT was prepared from a microsome fraction of the tunica mucosa intestini tenuis of Spregue-Dawley male rat (six week old) which had been subjected to fasting for 20 hours according to the method described in Journal of Lipid Research, 24, 1127 (1982).
ACAT activity was calculated by measuring an amount of a labeled cholesterol ester formed from [1-^14 C]oleoyl-CoA and endogenous cholesterol according to the process of Helgerud et al. [Journal of Lipid Research, 22, 271 (1981)].
ACTA inhibitory activity of compounds tested are shown in Table 1 by a labeled cholesterol ester formation inhibitory rate (%) obtained by addition of the test compounds in an amount of 10^-6 M.

inhibition at 1 µM [%]	SMILES
96.3	O=C(Nc1ccc(F)cc1F)Nc1cnc2sc3c(c2c1-c1ccccc1Cl)CCC3 [Example 6, N-[4-(2-chlorophenyl)-6,7-dihydro-5H-cyclopenta[1',2':5,4]thieno[2,3-b]pyridin-3-yl]-N'-(2,4-difluorophenyl)urea]
34.4	O=C(Nc1cnc2sc3c(c2c1-c1ccccc1Cl)CCC3)c1ccc(F)cc1F [Example 7, 4-(2-chlorophenyl)-3-(2,4-difluorobenzoylamino)-6,7-dihydro-5H-cyclopenta[1',2':5,4]thieno[2,3-b]pyridine]
94.4	O=C(Cc1ccc(F)cc1F)Nc1cnc2sc3c(c2c1-c1ccccc1Cl)CCC3 [Example 8, 4-(2-chlorophenyl)-3-(2,4-difluorophenylacetylamino)-6,7-dihydro-5H-cyclopenta-[1',2':5,4]thieno-[2,3-b]pyridine]
60.2	Cc1ccccc1-c1c(NC(=O)Nc2ccc(F)cc2F)cnc2sccc12 [Example 9, N-(2,4-difluorophenyl)-N'-[4-(2-methylphenyl)-thieno[2,3-b]pyridin-5-yl]urea]
95.1	Cc1cc2c(-c3ccccc3Cl)c(NC(=O)Nc3ccc(F)cc3F)cnc2s1 [Example 10, N-[4-(2-chlorophenyl)-2-methylthieno[2,3-b]pyridin-5-yl]-N'-(2,4-difluorophenyl)urea]
94.5	Cc1ccccc1-c1c(NC(=O)Nc2ccc(F)cc2F)cnc2sc(Cl)cc12 [Example 11, N-[2-chloro-4-(2-methylphenyl)thieno[2,3-b]pyridin-5-yl]-N'-[2,4-difluorophenyl)urea]

More lines, now with the values behind:

SMILES	inhibition at 1 µM [%]
CCc1cc2c(-c3ccccc3Cl)c(NC(=O)Nc3ccc(F)cc3F)cnc2s1 [Example 1, N-[4-(2-chlorophenyl)-2-ethylthieno[2,3-b]pyridin-5-yl]-N'-(2,4-difluorophenyl)urea]	98.7
CCc1cc2c(-c3ccccc3Cl)c(NC(=O)C=Cc3cc(OC)c(OC(C)=O)c(OC)c3)cnc2s1 [Example 2, 5-(4-Acetoxy-3,5-dimethoxycinnamoylamino)-4-(2-chlorophenyl)-2-ethylthieno[2,3-b]pyridine]	74.3
CCc1cc2c(-c3ccccc3Cl)c(NC(=O)Nc3ccc(F)cc3F)c(=O)n(C)c2s1 [Example 3, N-[4-(2-chlorophenyl)-6,7-dihydro-2-ethyl-7-methyl-6-oxothieno[2,3-b]pyridin-5-yl]-N'-(2,4-difluorophenyl)urea]	99.6
CCc1cc2c(-c3ccccc3Cl)c(NC(=O)Nc3ccc(Cl)cc3)cnc2s1 [Example 4, N-(4-chlorophenyl)-N'-[4-(2-chlorophenyl)-2-ethylthieno[2,3-b]pyridin-5-yl]urea]	93.6
Cc1sc2ncc(NC(=O)Nc3ccc(F)cc3F)c(-c3ccccc3Cl)c2c1C [Example 5, N-[4-(2-chlorophenyl)-2,3-dimethylthieno[2,3-b]pyridin-5-yl]-N'-(2,4-difluorophenyl)urea]	93.9
CCc1cc2c(-c3ccccc3OC)c(NC(=O)Nc3cc(C)c(OC(C)=O)c(C)c3)cnc2s1 [Example 13, N-(4-acetoxy-3,5-dimethylphenyl)-N'-[2-ethyl-4-(2-methoxyphenyl)thieno[2,3-b]pyridin-5-yl]urea]	97.5
CCc1cc2c(-c3ccccc3OC)c(NC(=O)Nc3cc(OC)c(OC(C)=O)c(OC)c3)cnc2s1 [Example 14, N-(4-acetoxy-3,5-dimethoxyphenyl)-N'-[2-ethyl-4-(2-methoxyphenyl)thieno[2,3-b]pyridin-5-yl]urea]	91.9
